Reference: the supplement of paper PMC10307832

Key:
Assay in all cases: relative viability (nuclei count vs DMSO), 5 days (fraction); higher = more cells survive
NCI-H1975 = system: NCI-H1975
Summary of the method: (§1)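 Lung cancer cell lines, seeded in 1536-well plates, were treated the following day by pin tool with a single drug or with five library-drug doses (not always all listed) in √10 steps on top of a fixed anchor-drug dose. Cells were fixed and nuclei stained in one step after 5 days, and nuclei were counted. Relative viability is the nuclei count for treated wells divided by that for vehicle wells, reported as medians of duplicate plates.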

HOP-62 = system: HOP-62
Summary of the method: as §1

NCI-H1755 = system: NCI-H1755
Summary of the method: as §1

NCI-H1915 = system: NCI-H1915
Summary of the method: as §1

NCI-H2347 = system: NCI-H2347
Summary of the method: as §1

NCI-H2228 = system: NCI-H2228
Summary of the method: as §1

NCI-H522 = system: NCI-H522
Summary of the method: as §1

LOU-NH91 = system: LOU-NH91
Summary of the method: as §1

RERF-LC-KJ = system: RERF-LC-KJ
Summary of the method: as §1

NCI-H460 = system: NCI-H460
Summary of the method: as §1

LC-2-ad = system: LC-2-ad
Summary of the method: as §1

A-427 = system: A-427
Summary of the method: as §1

PC-3 [JPC-3] = system: PC-3 [JPC-3]
Summary of the method: as §1

NCI-H2126 = system: NCI-H2126
Summary of the method: as §1

LXF-289 = system: LXF-289
Summary of the method: as §1

SW 1573 = system: SW 1573
Summary of the method: as §1

HCC-15 = system: HCC-15
Summary of the method: as §1

NCI-H2342 = system: NCI-H2342
Summary of the method: as §1

NCI-H1734 = system: NCI-H1734
Summary of the method: as §1

SK-LU-1 = system: SK-LU-1
Summary of the method: as §1

NCI-H358 = system: NCI-H358
Summary of the method: as §1

HCC-78 = system: HCC-78
Summary of the method: as §1

NCI-H647 = system: NCI-H647
Summary of the method: as §1

`CC(C)Oc1cc(Nc2nc(N[C@@H](C)c3ccc(F)cn3)ncc2Cl)n[nH]1` [AZ23] + O=C(CCCCCCC(=O)Nc1ccccc1)NO [Vorinostat] (partner 1 µM) gave a relative viability (NCI-H1975; first compound 0.01 µM) of 0.734, a relative viability (NCI-H1975; first compound 0.03162 µM) of 0.738 and a relative viability (NCI-H1975; first compound 0.3162 µM) of 0.731. For the same compound, the relative viability (HOP-62; first compound 0.01 µM) was 0.527, the relative viability (HOP-62; first compound 0.03162 µM) was 0.765 and the relative viability (HOP-62; first compound 0.3162 µM) was 0.733. It also gave a relative viability (NCI-H1755; first compound 0.01 µM) of 0.854, a relative viability (NCI-H1755; first compound 0.03162 µM) of 0.714 and a relative viability (NCI-H1755; first compound 0.3162 µM) of 0.805. For the same compound, the relative viability (NCI-H1915; first compound 0.01 µM) was 0.575, the relative viability (NCI-H1915; first compound 0.03162 µM) was 0.526 and the relative viability (NCI-H1915; first compound 0.3162 µM) was 0.58. The relative viability (NCI-H2347; first compound 0.01 µM) was 0.446, the relative viability (NCI-H2347; first compound 0.03162 µM) was 0.631 and the relative viability (NCI-H2347; first compound 0.3162 µM) was 0.587. It also gave a relative viability (NCI-H2228; first compound 0.01 µM) of 0.72, a relative viability (NCI-H2228; first compound 0.03162 µM) of 0.585 and a relative viability (NCI-H2228; first compound 0.3162 µM) of 0.628. It also gave a relative viability (NCI-H522; first compound 0.01 µM) of 0.939, a relative viability (NCI-H522; first compound 0.03162 µM) of 0.954 and a relative viability (NCI-H522; first compound 0.3162 µM) of 0.934. The relative viability (LOU-NH91; first compound 0.01 µM) was 0.864, the relative viability (LOU-NH91; first compound 0.03162 µM) was 1.03 and the relative viability (LOU-NH91; first compound 0.3162 µM) was 0.964. It also gave a relative viability (RERF-LC-KJ; first compound 0.01 µM) of 0.711, a relative viability (RERF-LC-KJ; first compound 0.03162 µM) of 0.704 and a relative viability (RERF-LC-KJ; first compound 0.3162 µM) of 0.675. For the same compound, the relative viability (NCI-H460; first compound 0.01 µM) was 0.252, the relative viability (NCI-H460; first compound 0.03162 µM) was 1.06 and the relative viability (NCI-H460; first compound 0.3162 µM) was 0.774. For the same compound, the relative viability (LC-2-ad; first compound 0.01 µM) was 0.86, the relative viability (LC-2-ad; first compound 0.03162 µM) was 0.789 and the relative viability (LC-2-ad; first compound 0.3162 µM) was 0.716. The relative viability (A-427; first compound 0.01 µM) was 0.699, the relative viability (A-427; first compound 0.03162 µM) was 0.892 and the relative viability (A-427; first compound 0.3162 µM) was 0.988. It also gave a relative viability (PC-3 [JPC-3]; first compound 0.01 µM) of 0.721, a relative viability (PC-3 [JPC-3]; first compound 0.03162 µM) of 0.867 and a relative viability (PC-3 [JPC-3]; first compound 0.3162 µM) of 0.826. For the same compound, the relative viability (NCI-H2126; first compound 0.01 µM) was 0.776, the relative viability (NCI-H2126; first compound 0.03162 µM) was 0.873 and the relative viability (NCI-H2126; first compound 0.3162 µM) was 0.616. It also gave a relative viability (LXF-289; first compound 0.01 µM) of 0.949, a relative viability (LXF-289; first compound 0.03162 µM) of 0.776 and a relative viability (LXF-289; first compound 0.3162 µM) of 0.737. It also gave a relative viability (SW 1573; first compound 0.01 µM) of 0.963, a relative viability (SW 1573; first compound 0.03162 µM) of 0.881 and a relative viability (SW 1573; first compound 0.3162 µM) of 0.757. It also gave a relative viability (HCC-15; first compound 0.01 µM) of 0.921, a relative viability (HCC-15; first compound 0.03162 µM) of 0.963 and a relative viability (HCC-15; first compound 0.3162 µM) of 0.788. The relative viability (NCI-H2342; first compound 0.01 µM) was 0.619, the relative viability (NCI-H2342; first compound 0.03162 µM) was 0.74 and the relative viability (NCI-H2342; first compound 0.3162 µM) was 0.686. It also gave a relative viability (NCI-H1734; first compound 0.01 µM) of 0.64, a relative viability (NCI-H1734; first compound 0.03162 µM) of 0.88 and a relative viability (NCI-H1734; first compound 0.3162 µM) of 1.06. For the same compound, the relative viability (SK-LU-1; first compound 0.03162 µM) was 0.801, the relative viability (SK-LU-1; first compound 0.3162 µM) was 0.759 and the relative viability (NCI-H358; first compound 0.01 µM) was 0.631. The relative viability (NCI-H358; first compound 0.03162 µM) was 0.718, the relative viability (NCI-H358; first compound 0.3162 µM) was 0.758 and the relative viability (HCC-78; first compound 0.01 µM) was 0.432. The relative viability (HCC-78; first compound 0.03162 µM) was 0.401, the relative viability (HCC-78; first compound 0.3162 µM) was 0.341 and the relative viability (NCI-H647; first compound 0.01 µM) was 0.935. It also gave a relative viability (NCI-H647; first compound 0.03162 µM) of 0.497 and a relative viability (NCI-H647; first compound 0.3162 µM) of 0.591.
